What was measured:
[1] = tested on: UM-UC-14 (Bladder Cancer), FGFR3(S249C); test: Cancer cell viability assay (Cell Titer-Glo), UM-UC-14; type: cell-based; settings: UMUC14, UM-UC-14 cells, 72 hours
Source text: (§1) RT112/84, UM-UC-14, SNU-16 and KG-1 Cancer Cell Line Cell Viability Assays
(§2) To detect the change of intracellular ATP by Cell Titer-Glo@ and to evaluate the inhibitory effect of the compounds on cancer cell lines by determining the in vitro IC50 value of the compounds.
(§3) Cell Titer-Glo@ 2.0 Luminescent cell viability assay reagent was purchased from Promega (Madison, WI). RT112/84, SNU-16, and KG-1 cell lines were purchased from American Type Culture Collection (Manassas, VA). UM-UC-14 cell line was purchased from Sigma (St. Louis, MO). RT112/84, UM-UC-14, SNU-16, and KG-1 cells were cultured in RPMI1640 media supplemented with 10% fetal bovine serum. Cultures were maintained at 37° C. in a humidified atmosphere of 5% CO2 and 95% air.
(§4) Cell Viability Assay Procedure: Cells were plated in 96-well clear bottom/white plates (Corning #3903) at 10,000 cells/well in 100 μl of media, incubated overnight. The next day, test compound DMSO stock solutions were made at 10 mM and 2 μM final concentration. Compounds were then added to cells in a 9-dose, […] dilution series starting at 30 μM with an HP 300e Digital Dispenser (each dose was applied in triplicate). DMSO was backfilled to each well up to 301 nL total volume of test compound+DMSO, and a total of 301 nL DMSO was added to a control/no test compound well in triplicate. The cells in cell culture plates were incubated with the compounds at 37° C. and 5% CO2 for 72 hours. Then 50 μl of Cell Titer Glo 2.0 reagent was added to each well of the cell culture plates. The contents were covered from light and mixed on an orbital shaker at room temperature for 10 min. Luminescence was recorded by a Synergy H1 Microplate Reader (Biotek, Winooski, VT). Cells were assessed as a percentage of DMSO only treated control cells. Curves were plotted and IC50 values were calculated using the GraphPad Prism 8 program based on a sigmoidal dose-response equation (4 parameter).

FGFR3 (V555M) = molecular target: T1, FGFR3 (V555M) (Homo sapiens, UniProt P22607, V555M); test: Kinase binding assay (kinase-tagged T7 phage, affinity beads, qPCR readout), FGFR3 (V555M); settings: FGFR binding data
T1 construct: made in house; host or cells: E. coli derived from BL21, infected with T7 phage
Outline: (§5)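 Kd values derive from Hill-equation fits (slope −1, Levenberg-Marquardt) of qPCR-quantified kinase recovered from ligand-coated beads. Compounds ran as 11-point 3-fold series, final DMSO 0.9%, with 1 hour room-temperature binding.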

FGFR2 = molecular target: T2, FGFR2 (Homo sapiens, UniProt P21802); test: Kinase binding assay (kinase-tagged T7 phage, affinity beads, qPCR readout), FGFR2; settings: FGFR binding data
T2 construct: made in house; host or cells: E. coli derived from BL21, infected with T7 phage
Outline: as §5

FGFR1 = molecular target: T3, FGFR1 (Homo sapiens, UniProt P11362); test: Kinase binding assay (kinase-tagged T7 phage, affinity beads, qPCR readout), FGFR1; settings: FGFR binding data
T3 construct: made in house; host or cells: E. coli derived from BL21, infected with T7 phage
Outline: as §5

FGFR3 = molecular target: T4, FGFR3 (Homo sapiens, UniProt P22607); test: Kinase binding assay (kinase-tagged T7 phage, affinity beads, qPCR readout), FGFR3; settings: FGFR binding data
T4 construct: made in house; host or cells: E. coli derived from BL21, infected with T7 phage
Outline: as §5

[2] = tested on: SNU-16 (Gastric Carcinoma), FGFR2 amplification; test: Cancer cell viability assay (Cell Titer-Glo), SNU-16; type: cell-based; settings: Homo sapiens, SNU-16 cells, 72 hours, read-out: SNU16 FGFR2 (IC50 nM)
Source text: as §1, §2, §3, §4

T1 sequence (P22607 23-806 V555M): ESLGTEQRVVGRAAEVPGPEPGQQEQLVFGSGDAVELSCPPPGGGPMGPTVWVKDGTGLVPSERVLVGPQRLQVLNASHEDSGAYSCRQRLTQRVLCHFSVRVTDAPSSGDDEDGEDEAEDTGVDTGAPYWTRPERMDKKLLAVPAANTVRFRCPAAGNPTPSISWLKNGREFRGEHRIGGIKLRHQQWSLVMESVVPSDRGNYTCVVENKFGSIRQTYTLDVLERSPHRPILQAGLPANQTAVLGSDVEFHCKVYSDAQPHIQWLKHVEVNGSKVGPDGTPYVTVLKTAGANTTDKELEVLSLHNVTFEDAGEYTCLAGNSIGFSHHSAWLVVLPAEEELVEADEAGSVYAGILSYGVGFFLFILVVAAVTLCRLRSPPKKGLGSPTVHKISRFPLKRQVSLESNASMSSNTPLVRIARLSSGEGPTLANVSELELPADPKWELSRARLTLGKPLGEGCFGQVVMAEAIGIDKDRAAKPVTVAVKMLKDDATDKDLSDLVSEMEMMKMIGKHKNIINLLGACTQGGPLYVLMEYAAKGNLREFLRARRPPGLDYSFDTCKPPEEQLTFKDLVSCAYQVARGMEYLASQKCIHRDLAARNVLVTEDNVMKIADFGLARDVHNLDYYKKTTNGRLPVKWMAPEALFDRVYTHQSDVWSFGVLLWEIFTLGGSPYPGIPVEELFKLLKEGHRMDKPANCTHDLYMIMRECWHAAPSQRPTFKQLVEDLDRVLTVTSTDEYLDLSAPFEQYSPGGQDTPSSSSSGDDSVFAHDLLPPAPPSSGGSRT
T4 sequence (P22607 23-806): as the sequence (P22607 23-806 V555M) above, with M533V counted along it
T3 sequence (P11362 22-822): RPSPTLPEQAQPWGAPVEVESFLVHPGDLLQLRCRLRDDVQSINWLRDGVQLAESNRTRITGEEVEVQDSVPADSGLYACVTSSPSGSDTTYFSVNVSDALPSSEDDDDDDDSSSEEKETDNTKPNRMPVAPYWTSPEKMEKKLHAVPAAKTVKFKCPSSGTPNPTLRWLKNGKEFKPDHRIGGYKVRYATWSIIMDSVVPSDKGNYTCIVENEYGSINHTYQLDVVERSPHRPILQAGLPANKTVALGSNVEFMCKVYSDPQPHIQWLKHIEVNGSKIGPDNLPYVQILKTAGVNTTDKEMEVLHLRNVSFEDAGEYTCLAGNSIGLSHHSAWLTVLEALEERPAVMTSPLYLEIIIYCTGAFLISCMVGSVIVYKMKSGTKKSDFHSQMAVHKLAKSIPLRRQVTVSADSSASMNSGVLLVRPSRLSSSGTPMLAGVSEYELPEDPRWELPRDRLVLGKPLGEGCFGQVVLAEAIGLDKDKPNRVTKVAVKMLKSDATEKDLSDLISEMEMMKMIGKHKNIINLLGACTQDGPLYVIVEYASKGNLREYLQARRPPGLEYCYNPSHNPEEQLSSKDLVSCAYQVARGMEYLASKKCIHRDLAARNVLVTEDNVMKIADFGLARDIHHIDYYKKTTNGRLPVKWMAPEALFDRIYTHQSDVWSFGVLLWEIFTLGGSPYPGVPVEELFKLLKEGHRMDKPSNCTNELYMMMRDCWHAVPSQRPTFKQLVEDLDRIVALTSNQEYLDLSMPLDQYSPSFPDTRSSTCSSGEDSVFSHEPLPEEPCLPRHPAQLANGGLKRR
T2 sequence (P21802 22-821): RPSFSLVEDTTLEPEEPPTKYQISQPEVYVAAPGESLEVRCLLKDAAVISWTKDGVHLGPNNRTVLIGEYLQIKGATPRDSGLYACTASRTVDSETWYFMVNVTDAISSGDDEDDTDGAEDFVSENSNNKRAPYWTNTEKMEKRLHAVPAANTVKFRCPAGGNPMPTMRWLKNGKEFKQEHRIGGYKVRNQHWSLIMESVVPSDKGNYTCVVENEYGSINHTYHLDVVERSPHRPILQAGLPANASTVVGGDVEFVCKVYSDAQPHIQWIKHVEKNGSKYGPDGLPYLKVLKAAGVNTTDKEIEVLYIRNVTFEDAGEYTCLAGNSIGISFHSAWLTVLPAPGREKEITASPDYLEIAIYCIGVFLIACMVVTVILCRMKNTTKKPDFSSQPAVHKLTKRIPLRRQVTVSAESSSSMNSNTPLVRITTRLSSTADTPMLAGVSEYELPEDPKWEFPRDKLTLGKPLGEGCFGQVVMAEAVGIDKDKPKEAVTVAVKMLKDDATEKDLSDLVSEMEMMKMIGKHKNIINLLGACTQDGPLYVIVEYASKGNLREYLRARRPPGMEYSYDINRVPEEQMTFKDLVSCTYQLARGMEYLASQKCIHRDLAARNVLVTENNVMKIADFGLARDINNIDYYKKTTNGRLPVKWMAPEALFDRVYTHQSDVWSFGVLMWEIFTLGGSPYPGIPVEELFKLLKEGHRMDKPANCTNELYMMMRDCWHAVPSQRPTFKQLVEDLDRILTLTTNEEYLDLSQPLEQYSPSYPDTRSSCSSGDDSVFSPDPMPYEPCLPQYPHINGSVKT

Row | SMILES | IC50 [1] [nM] | Kd (FGFR3 (V555M)) [nM] | Kd (FGFR2) [nM] | Kd (FGFR1) [nM] | Kd (FGFR3) [nM] | IC50 [2] [nM]
1 | C=CC(=O)Nc1ccc2c(c1)c(C)nn2-c1nc(Nc2ccnn2C)ncc1C [Example 77, N-[3-methyl-1-[5-methyl-2-[(2-methylpyrazol-3-yl)amino]pyrimidin-4-yl]indazol-5-yl]prop-2-enamide] | > 1000 | 250 to 1000 | > 1000 | > 1000 | 250 to 1000 | 
2 | C=CC(=O)Nc1cnc2c(c1)c(C)cn2-c1nc(Nc2ccnn2C)ncc1F [Example 80, N-[1-[5-fluoro-2-[(2-methylpyrazol-3-yl)amino]pyrimidin-4-yl]-3-methyl-pyrrolo[2,3-b]pyridin-5-yl]prop-2-enamide] | 0.1 to 100 | 0.1 to 100 | 0.1 to 100 | 0.1 to 100 | 0.1 to 100 | 
3 | C=CC(=O)Nc1ccc2c(c1)c(C)cn2-c1nc(Nc2cnn(C3CCOC3)c2)ncc1F (stereo not shown) [Example 215, N-[1-[5-fluoro-2-[(1-tetrahydrofuran-3-ylpyrazol-4-yl)amino]pyrimidin-4-yl]-3-methyl-indol-5-yl]prop-2-enamide] |  | 0.1 to 100 | 0.1 to 100 | 0.1 to 100 | 0.1 to 100 | 0.1 to 100
4 | C=CC(=O)Nc1ccc2c(-c3nc(Nc4cnn(CCO)c4)ncc3C)cn(C)c2c1 [Example 126, N-[3-[2-[[1-(2-hydroxyethyl)pyrazol-4-yl]amino]-5-methyl-pyrimidin-4-yl]-1-methyl-indol-6-yl]prop-2-enamide] |  | 0.1 to 100 | 0.1 to 100 | 0.1 to 100 | 0.1 to 100 | 0.1 to 100
5 | C=CC(=O)Nc1ccc2c(-c3ccnc(Nc4cnn(C5CC5)c4)n3)cn(C)c2c1 [Example 178, N-[3-[2-[(1-cyclopropylpyrazol-4-yl)amino]pyrimidin-4-yl]-1-methyl-indol-6-yl]prop-2-enamide] |  | 0.1 to 100 | 0.1 to 100 | 0.1 to 100 | 0.1 to 100 | 0.1 to 100
6 | C=CC(=O)Nc1ccc2c(c1)c(C)cn2-c1nc(Nc2cnn(C)c2C)ncc1C [Example 147, N-[1-[2-[(1,5-dimethylpyrazol-4-yl)amino]-5-methyl-pyrimidin-4-yl]-3-methyl-indol-5-yl]prop-2-enamide] |  | 0.1 to 100 | 0.1 to 100 | 0.1 to 100 | 0.1 to 100 | 0.1 to 100
7 | Cc1cnc(Nc2ccnn2C)nc1-n1cc(C)c2cc(NC(=O)/C=C/CN(C)C)ccc21 [Example 107, (E)-4-(dimethylamino)-N-[3-methyl-1-[5-methyl-2-[(2-methylpyrazol-3-yl)amino]pyrimidin-4-yl]indol-5-yl]but-2-enamide] |  | 0.1 to 100 | 100 to 250 | 250 to 1000 | 0.1 to 100 | 0.1 to 100
8 | Cc1cn(-c2nc(Nc3cnn(CCO)c3)ncc2F)c2ccc(NC(=O)/C=C/CN(C)C)cc12 [Example 144, (E)-4-(dimethylamino)-N-[1-[5-fluoro-2-[[1-(2-hydroxyethyl)pyrazol-4-yl]amino]pyrimidin-4-yl]-3-methyl-indol-5-yl]but-2-enamide] |  | 0.1 to 100 | 0.1 to 100 | 0.1 to 100 | 0.1 to 100 | 0.1 to 100
9 | C=CC(=O)Nc1ccc2c(-c3ccnc(Nc4cnn(C)c4)n3)cn(C)c2c1 [Example 201, N-[3-[2-[(1-methylpyrazol-4-yl)amino]pyrimidin-4-yl]-1-methyl-indol-6-yl]prop-2-enamide] |  | 0.1 to 100 | 0.1 to 100 | 0.1 to 100 | 0.1 to 100 | 0.1 to 100
10 | C=CC(=O)Nc1ccc2c(c1)c(C)cn2-c1nc(Nc2cnn(CC(C)(C)O)c2C)ncc1F [Example 183, N-[1-[5-fluoro-2-[[1-(2-hydroxy-2-methyl-propyl)-5-methyl-pyrazol-4-yl]amino]pyrimidin-4-yl]-3-methyl-indol-5-yl]prop-2-enamide] |  | 0.1 to 100 | 0.1 to 100 | 0.1 to 100 | 0.1 to 100 | 0.1 to 100
11 | C=CC(=O)Nc1cnc2c(c1)c(C)cn2-c1nc(Nc2cnn(CCO)c2)ncc1C [Example 125, N-[1-[2-[[1-(2-hydroxyethyl)pyrazol-4-yl]amino]-5-methyl-pyrimidin-4-yl]-3-methyl-pyrrolo[2,3-b]pyridin-5-yl]prop-2-enamide] |  | 0.1 to 100 | 0.1 to 100 | 0.1 to 100 | 0.1 to 100 | 0.1 to 100
12 | Cc1cnc(Nc2cnn(CCO)c2)nc1-n1cc(C)c2cc(NC(=O)/C=C/CN(C)C)ccc21 [Example 122, (E)-4-(dimethylamino)-N-[1-[2-[[1-(2-hydroxyethyl)pyrazol-4-yl]amino]-5-methyl-pyrimidin-4-yl]-3-methyl-indol-5-yl]but-2-enamide] |  | 0.1 to 100 | 0.1 to 100 | 0.1 to 100 | 0.1 to 100 | 0.1 to 100
13 | C=CC(=O)Nc1ccc2c(c1)c(C)cn2-c1nc(Nc2cccnc2C)ncc1F [Example 153, N-[1-[5-fluoro-2-[(2-methyl-3-pyridyl)amino]pyrimidin-4-yl]-3-methyl-indol-5-yl]prop-2-enamide] |  | 0.1 to 100 | 100 to 250 | 250 to 1000 | 0.1 to 100 | 0.1 to 100
14 | C=CC(=O)Nc1ccc2c(c1)c(C)cn2-c1nc(Nc2cn(C(F)F)nc2C)ncc1F [Example 149, N-[1-[2-[[1-(difluoromethyl)-3-methyl-pyrazol-4-yl]amino]-5-fluoro-pyrimidin-4-yl]-3-methyl-indol-5-yl]prop-2-enamide] |  | 0.1 to 100 | 0.1 to 100 | 100 to 250 | 0.1 to 100 | 0.1 to 100
15 | C=CC(=O)Nc1ccc2c(-c3ccnc(Nc4cc(C)n(C)n4)n3)cn(C)c2c1 [Example 103, N-[3-[2-[(1,5-dimethylpyrazol-3-yl)amino]pyrimidin-4-yl]-1-methyl-indol-6-yl]prop-2-enamide] |  | 100 to 250 | 100 to 250 | 250 to 1000 | 0.1 to 100 | 0.1 to 100
16 | C=CC(=O)Nc1ccc2c(-c3nc(Nc4cnn(CCO)c4)ncc3F)cn(C)c2c1 [Example 128, N-[3-[5-fluoro-2-[[1-(2-hydroxyethyl)pyrazol-4-yl]amino]pyrimidin-4-yl]-1-methyl-indol-6-yl]prop-2-enamide] |  | 0.1 to 100 | 0.1 to 100 | 0.1 to 100 | 0.1 to 100 | 0.1 to 100
17 | C=CC(=O)Nc1ccc2c(c1)c(C)cn2-c1nc(Nc2cn(CC)nc2C)ncc1F [Example 156, N-[1-[2-[(1-ethyl-3-methyl-pyrazol-4-yl)amino]-5-fluoro-pyrimidin-4-yl]-3-methyl-indol-5-yl]prop-2-enamide] |  | 0.1 to 100 | 0.1 to 100 | 0.1 to 100 | 0.1 to 100 | 0.1 to 100
18 | C=CC(=O)Nc1ccc2c(c1)c(C)cn2-c1nc(Nc2cnn(CC3(O)CC3)c2)ncc1F [Example 175, N-[1-[5-fluoro-2-[[1-[(1-hydroxycyclopropyl)methyl]pyrazol-4-yl]amino]pyrimidin-4-yl]-3-methyl-indol-5-yl]prop-2-enamide] |  | 0.1 to 100 | 0.1 to 100 | 0.1 to 100 | 0.1 to 100 | 0.1 to 100
19 | C=CC(=O)Nc1ccc2c(-c3nc(Nc4cnc5ccnn5c4)ncc3Cl)cn(C)c2c1 [Example 43, N-[3-[5-chloro-2-(pyrazolo[1,5-a]pyrimidin-6-ylamino)pyrimidin-4-yl]-1-methyl-indol-6-yl]prop-2-enamide] | 100 to 250 |  |  |  |  | 

Reference: patent publication US20240190849A1, “AMINOPYRIMIDINE COMPOUNDS AND METHODS OF THEIR USE” (TYRA BIOSCIENCES, INC., priority 2021, published 2024)
